Assay results published in patent EP1161410B1, “RETINOID ANTAGONISTS AND USE THEREOF” (Basilea Pharmaceutica AG, priority 1999, dated 2000).

What was measured:
[1] = Clinical trial, topical treatment of precancerous lesions of the skin (multiple actinic keratoses); assay type: in vivo, human; details: cream 1 % twice daily
From the text: Efficacy of topical application of Compound B in the treatment of precancerous lesions of the skin (multiple actinic keratoses)
In a clinical trial, a cream containing 1 % of Compound B was applied on the lesions twice daily without occlusive dressing. […]

IL-12 = IL-12 production by THP-1 cells stimulated with IFNγ and SAC; assay type: cell-based, human; details: retinoid antagonist (1 µg) added at time 0 together with IFNγ, IFNγ+SAC alone 275
Experimental: THP-1 cells were obtained from American Tissue Culture Collection and cultured in complete medium. To assay for IL-12 production, THP-1 cells, 1.25 x 10^6 cells/ml, were stimulated with S. aureus Cowan strain (SAC) (1/1000) and human recombinant interferon-γ (huIFN-γ (1000 U/ml) [Ma et al., J. Exp. Med. 183, 147-157 (1996)]. Alternatively, 0.5 x 10^6 human peripheral blood mononuclear cells (PBMC) (1 ml culture in 48 well plates) were primed with huIFN-γ (1000 U/ml) for 16 hours at 37°C, and then stimulated with SAC (1/1000). Supernatants were collected after 48 hours and freezed at -20 °C until assayed [Panina-Bordignon et al., J. Clin. Invest. 100, 1513-1519 (1997)].
IL-12 production was measured by specific enzyme linked immuno sorbant assay (ELISA), using 20C2 antibody (rat anti human IL-12 heterodimer p40-p35), at 2.5 µg/ml in coating buffer, and peroxidase-conjugated 4D6 antibody (rat anti human IL-12) at 250 ng/ml in assay buffer as described [Zhang et al., J. Clin. Invest. 93, 1733-1739 (1994)]. Standard (recombinant human IL-12, 800 pg/ml to 6 pg/ml) and samples (100 µl) diluted in assay buffer were added to duplicate wells. Absorbance was read at 450-650 nm. The unknown IL-12 concentrations of the samples were read from the corresponding standard curve and multiplied by the corresponding dilution factor. Maximal IL-12 production varied between 200 and 400 pg/ml.
Lyophilized retinoid antagonists were diluted in DMSO under yellow light, on ice at a concentration of 2 mM. Serial dilutions (1 µM-1 pM) were prepared in complete RPMI medium. 10 µl of each dilution was added to 1 ml culture.

neonatal mouse calvaria = test: Bone resorption assay, calcium release from neonatal mouse calvaria in tissue culture; assay type: cell-based, Swiss albino mice; details: for bone resorption induced by six different agents: inducers: calcitriol, all-trans RA, 9-cis RA, PGE2, TNFα, IL-1α (tables 6 to 11)
Experimental: A series of agents are known to induce or stimulate bone resorption. In this assay retinoid antagonists were tested for their capacity to inhibit or counteract the bone resorptive activity of bone resorption inducers.
Bone resorption was determined by quantification of calcium release from neonatal mouse calvaria (skull bones) in a tissue culture system, into supernatant medium. Calvaria were prepared from 4 days old mice (body weight 4-4.5 g) of time controlled mated Swiss albino mice. Frontal and parietal calvarial parts were dissected under a stereo-microscope and halved along the median suture. Half calvaria from all animals were randomly distributed to 6-well culture dishes (NUNC), containing stainless steel grids to support the bones at the interface of gas and medium. The tissue is incubated in BGJ medium (Bioconcept, Switzerland) according to a specified formulation supplemented with 1 mg/ml BSA (bovine serum albumin, SIGMA). Calvaria were cultured at 37°C in humidified atmosphere of 5% CO2 and 95% air. After 24 hours of preincubation, they were transferred to new dishes containing 1.7 ml fresh medium and test substances. Bone resorption inducers and retinoid antagonists were tested either as single agents or in combination. The cultures were then run for 72 hours. Calcium concentrations in culture supernatants were measured immediately after each incubation period. Stable, free calcium was determined in 25 µl samples with a spectrophotometric method using a methylthymol blue containing kit (Biomérieux), (E.M. Gindler and J.D. King, Am. J. Clin. Pathol. 1972, 58, 376-382). The resorptive response was expressed as µg calcium released per half calvarium during 3 days treatment.
Additional tests were done to examine calcium remaining in the calvaria. Calcium was extracted with 5% trichloroacetic acid (TCA) and determined in 50 µl samples after neutralization with NaOH. Furthermore, bone tissue viability was determined to exclude cytotoxicity. This was quantified by the colorimetric MTT tetrazolium test (T. Mosmann, J. Immunol. Methods 1983, 65, 55-63).
Bone resorption induced by the various agents was determined by measuring the amount of calcium released from half calvaria into the supernatant medium. Calcium release is indicated in µg per half calvarium in 1.7 ml medium. Calcium release from calvaria into medium as well as uptake of calcium from medium into calvaria can be measured. Efficacy of retinoid antagonists to inhibit the activity of bone resorption inducers is expressed as % inhibition. It is calculated from the difference between the amount of released calcium by bone resorption inducers alone and the amount of released calcium by their combination with retinoid antagonists. Retinoid antagonists alone induce neither calcium release nor uptake. Basal resorption rate in vehicle controls was 5 or less than 5%.

TNF-α = TNF-α production by activated monocytes (SAC + IFN-γ); assay type: cell-based, human; details: SAC+IFN-γ alone 1840-2000 pg/ml
[2] = Patient I, both forearms, 4 months
[3] = Patient IV, face and back of both hands, 3 months
[4] = 9-cis RA 0.1 μM + retinoid antagonist 1 μM
[5] = 9-cis RA 0.1 μM + retinoid antagonist 10 μM
[6] = 9-cis RA 1 μM + retinoid antagonist 10 μM
[7] = Calcitriol 0.3 nM + retinoid antagonist 1 µM
[8] = Calcitriol 1 nM + retinoid antagonist 1 µM
[9] = Calcitriol 3 nM + retinoid antagonist 1 µM
[10] = all-trans RA 0.1 μM + retinoid antagonist 1 μM
[11] = all-trans RA 0.1 μM + retinoid antagonist 10 μM
[12] = all-trans RA 1 μM + retinoid antagonist 10 μM

CCCCOc1c(\C(C)=C/C=C/C(C)=C/C(=O)O)cc(C(C)(C)C)cc1C(C)(C)C [Compound B, (2E,4E,6Z)-7-(3,5-di-tert.butyl-2-butyloxyphenyl]-3-methyl-2,4,6-octatrienoic acid]
Adverse Events (particularly irritation of lesions and surrounding skin) [1, 2]: none | Improvement [1, 2]: marked | Reduction in Size of Lesions ([1]; Patient I, m, 53 years, both forearms, 4 months): 50% | Adverse Events (particularly irritation of lesions and surrounding skin) ([1]; Patient II, face, 6 weeks): none | Improvement ([1]; Patient II, face, 6 weeks): slight | Reduction in Size of Lesions ([1]; Patient III (person two), face, 4 months): 30% | Adverse Events (particularly irritation of lesions and surrounding skin) ([1]; Patient III, face, 4 months): none | Improvement ([1]; Patient III, face, 4 months): moderate | Adverse Events (particularly irritation of lesions and surrounding skin) [1, 3]: none | Improvement [1, 3]: moderate | Adverse Events (particularly irritation of lesions and surrounding skin) ([1]; Patient V, face, 2 months): none | Improvement ([1]; Patient V, face, 2 months): no | Reduction in Size of Lesions ([1]; Patient V, m, 74 years, face, 2 months): 0% | THP-1 IL-12 (IL-12): 577 pg/mL | Calcium release per half calvarium (neonatal mouse calvaria; [4]): 2 ± 5 µg | Inhibition of bone resorption by retinoid antagonists (neonatal mouse calvaria; [4]): 33.3% | Calcium release per half calvarium (neonatal mouse calvaria; [5]): -4 ± 3 µg | Inhibition of bone resorption by retinoid antagonists (neonatal mouse calvaria; [5]): 123.5% | Calcium release per half calvarium (neonatal mouse calvaria; [6]): -6 ± 2 µg | Inhibition of bone resorption by retinoid antagonists (neonatal mouse calvaria; [6]): 133.3% | Calcium release per half calvarium (neonatal mouse calvaria; [7]): -1 ± 2 µg | Inhibition of bone resorption by retinoid antagonists (neonatal mouse calvaria; [7]): 125% | Calcium release per half calvarium (neonatal mouse calvaria; [8]): 5 ± 3 µg | Inhibition of bone resorption by retinoid antagonists (neonatal mouse calvaria; [8]): 44.4% | Calcium release per half calvarium (neonatal mouse calvaria; [9]): 4 ± 4 µg | Inhibition of bone resorption by retinoid antagonists (neonatal mouse calvaria; [9]): 69.2% | Calcium release per half calvarium (neonatal mouse calvaria; [10]): 5 ± 4 µg | Inhibition of bone resorption by retinoid antagonist (neonatal mouse calvaria; [10]): 61.5% | Calcium release per half calvarium (neonatal mouse calvaria; [11]): -3 ± 4 µg | Inhibition of bone resorption by retinoid antagonist (neonatal mouse calvaria; [11]): 123.1% | Calcium release per half calvarium (neonatal mouse calvaria; [12]): 10 ± 7 µg | Inhibition of bone resorption by retinoid antagonist (neonatal mouse calvaria; [12]): 41.2% | bone resorption induced by six different agents (neonatal mouse calvaria): counteract bone resorption | TNF-α (TNF-α; antagonist 10 nM): 1484 pg/mL | TNF-α (TNF-α; antagonist 100 nM): 1812 pg/mL | TNF-α (TNF-α; antagonist 1000 nM): 1560 pg/mL

CCCCCCCOc1cc2c(cc1/C(C)=C/c1ccc(C(=O)O)cc1)C(C)(C)CCS2(=O)=O [Compound H, p-[(E)-2-[3',4'-Dihydro-4',4'-dimethyl-7'-(beptyloxy)-2'H-1-benzothiopyran-6'-yl]propenyl]benzoic acid 1',1'-dioxide]
THP-1 IL-12 (IL-12): 306 pg/mL | Calcium release per half calvarium (neonatal mouse calvaria; [4]): 4 ± 5 µg | Inhibition of bone resorption by retinoid antagonists (neonatal mouse calvaria; [4]): 82% | Calcium release per half calvarium (neonatal mouse calvaria; [5]): -5 ± 3 µg | Inhibition of bone resorption by retinoid antagonists (neonatal mouse calvaria; [5]): 123% | Calcium release per half calvarium (neonatal mouse calvaria; [6]): 28 ± 7 µg | Inhibition of bone resorption by retinoid antagonists (neonatal mouse calvaria; [6]): 30% | Calcium release per half calvarium (neonatal mouse calvaria; [7]): 0 ± 3 µg | Inhibition of bone resorption by retinoid antagonists (neonatal mouse calvaria; [7]): 100% | Calcium release per half calvarium (neonatal mouse calvaria; [8]): 4 ± 3 µg | Inhibition of bone resorption by retinoid antagonists (neonatal mouse calvaria; [8]): 55.6% | Calcium release per half calvarium (neonatal mouse calvaria; [9]): 11 ± 6 µg | Inhibition of bone resorption by retinoid antagonists (neonatal mouse calvaria; [9]): 15.4% | Calcium release per half calvarium (neonatal mouse calvaria; [10]): 2 ± 11 µg | Inhibition of bone resorption by retinoid antagonist (neonatal mouse calvaria; [10]): 89.5% | Calcium release per half calvarium (neonatal mouse calvaria; [11]): -5 ± 4 µg | Inhibition of bone resorption by retinoid antagonist (neonatal mouse calvaria; [11]): 126.3% | Calcium release per half calvarium (neonatal mouse calvaria; [12]): -2 ± 3 µg | Inhibition of bone resorption by retinoid antagonist (neonatal mouse calvaria; [12]): 108.7% | bone resorption induced by six different agents (neonatal mouse calvaria): counteract bone resorption | TNF-α (TNF-α; antagonist 10 nM): 1392 pg/mL | TNF-α (TNF-α; antagonist 100 nM): 1600 pg/mL | TNF-α (TNF-α; antagonist 1000 nM): 1912 pg/mL
